# Experimental data reported in patent US6043385A, “Vitamin D derivatives” (priority 1997, dated 2000).
# Experiments:
# [1] = Calcium liability (tolerance test in mice); settings: mouse, in vivo, sc, daily s.c. for 4 consecutive days, dose without weight loss / with zero weight gain, read-out: HTD sc, mouse (highest tolerated subcutaneous dose)
# Source text: 1. Calcium liability (tolerance test in mice):
# This test gives a global picture of calcemic liability. Profound changes in calcium homeostasis strongly affect the weight development of the animals. This parameter was used as a primary test for tolerance. Mice (25-30 g body weight) received daily subcutaneous administrations of the vitamin D derivative for 4 consecutive days. Body weight was registered just before and at the end of a […] treatment period. The "highest tolerated dose" (HTDsc) in mice is the dose which results in zero weight gain during this treatment period.
# HTDsc: highest tolerated subcutaneous dose (μg/kg) without weight loss
# human VDR = target: T1, human VDR (Homo sapiens, UniProt P11473); assay: Vitamin D receptor activation (VDR), transcription activation assay in COS cells; assay type: cell-based; settings: for EC50: COS cells cotransfected with human VDR and VDRE3-luciferase reporter, read-out: VDR act. (ED50, nanomolar); for HTD/VDR: ratio HTDsc (mouse, μg/kg) / VDR ED50 (nanomolar); for TI shift (HTD/VDR of test compound divided by HTD/VDR of calcitriol): vs calcitriol
# T1 construct: expressed in transfected cells; host or cells: COS cells, human VDR in pSG5
# T1 sequence (P11473 1-427): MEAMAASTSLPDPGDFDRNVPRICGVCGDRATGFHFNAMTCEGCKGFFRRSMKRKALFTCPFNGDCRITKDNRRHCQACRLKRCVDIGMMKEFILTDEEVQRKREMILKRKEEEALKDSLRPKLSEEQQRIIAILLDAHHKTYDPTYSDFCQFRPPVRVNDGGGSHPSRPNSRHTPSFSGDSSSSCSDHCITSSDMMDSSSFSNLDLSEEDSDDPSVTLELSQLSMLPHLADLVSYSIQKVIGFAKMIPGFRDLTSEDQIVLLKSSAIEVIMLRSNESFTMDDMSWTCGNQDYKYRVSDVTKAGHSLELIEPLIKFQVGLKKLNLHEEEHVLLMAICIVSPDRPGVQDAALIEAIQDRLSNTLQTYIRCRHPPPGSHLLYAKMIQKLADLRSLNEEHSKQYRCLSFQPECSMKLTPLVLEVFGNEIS
# Source text: 2. Vitamin D receptor activation (VDR)
# In order to measure the activation of the vitamin D receptor (VDR) by vitamin D analogs in cells a transcription activation assay was used. COS cells were cotransfected with the human VDR (expressed in pSG5) and a reporter gene containing three response elements (VDRE3) from the rat osteocalcine gene, the thymidine kinase basal promoter, and the luciferase reporter gene, respectively.
# TI shift: shift in "therapeutic index", defined as the ratio HTD/VDR of
# the test compound divided by the ratio HTD/VDR of calcitriol. These
# [2] = test system: Epidermal proliferation in minipigs; assay: The pig model: epidermal proliferation in minipigs; settings: for TI (ratio Calc./Eff.): calcemic dose / effective dose, 10080 min; for Calcemic dose / Effective dose: seven days; for Effective dose: dose that increases the normal LI at least 50%
# [3] = The mouse model: epidermal thickening (acanthosis) in hairless mice; settings: mouse, in vivo, po
# [4] = test system: Epidermal thickening (acanthosis) in hairless mice; assay: as above; settings: for ED50: Mus musculus, po, read-out: ED50: dose causing halfmaximal epidermal thickening; for ratio (TI) HTD/ED50 / TI shift (HTD/ED50 of test compound divided by HTD/ED50 of calcitriol): hairless mice, oral; for ratio (TI) HTD/ED50: HTDpo/ED50; for TI shift (HTD/ED50 of test compound divided by HTD/ED50 of calcitriol): vs calcitriol
SMILES,MTD [1],EC50 (human VDR),HTD/VDR (human VDR),TI shift (HTD/VDR of test compound divided by HTD/VDR of calcitriol) (human VDR),TI (ratio Calc./Eff.) [2],Calcemic dose [2],Effective dose [2],MTD [3],ED50 [4],ratio (TI) HTD/ED50 [4],TI shift (HTD/ED50 of test compound divided by HTD/ED50 of calcitriol) [4],hyperproliferation (in words) ([2]; up to 9 times the dose that induces hypercalcemia)
"C[C@H](CNC(=O)C[C@](C)(O)C(F)(F)F)[C@H]1CCC[C@H]2/C(=C/C=C3C[C@@H](O)C[C@H](O)C3)CCC[C@]12C [G, (E)--(S)--N--[(1R,3R,20S)-1,3-Dihydroxy-17a,20a-dihomo-19-nor-9,10-seco-pregna-5,7-dien-21-yl]-4,4,4-trifluoro-3-hydroxy-3-methyl-butyramide]",4.5 µg/kg,0.18 nM,25,132,–,–,–,–,–,–,–,–
"C[C@H](CNC(=O)C(C)(C)O)[C@H]1CC[C@H]2/C(=C/C=C3C[C@@H](O)C[C@H](O)C3)CCC[C@]12C [C, (E)--(1R,3R,20S)--N-(1,3-Dihydroxy-20-methyl-19-nor-9,10-seco-pregna-5,7-dien-21-yl)-2-hydroxy-2-methyl-propionamide]",400 µg/kg,6.4 nM,62.5,329,–,–,–,–,–,–,–,–
"C[C@H](CNC(=O)CC(O)(C(F)(F)F)C(F)(F)F)[C@H]1CCC[C@H]2/C(=C/C=C3C[C@@H](O)C[C@H](O)C3)CCC[C@]12C [H, (E)--N--[(1R,3R,20S)-1,3-Dihydroxy-17a,20a-dihomo-19-nor-9,10-seco-pregna-5,7-dien-21-yl]-4,4,4-trifluoro-3-trifluoromethyl-3-hydroxy-butyramide]",2.3 µg/kg,0.5 nM,4.6,24,–,–,–,–,–,–,–,–
"C[C@@H](CNC(=O)CC(C)(O)C(F)(F)F)[C@H]1CC[C@H]2/C(=C/C=C3C[C@@H](O)C[C@H](O)C3)CCC[C@]12C (mixture of isomers) [compound E, 1:1 Mixture of (E)--(R)-- and (S)--N--[(1R,3R,20R)-1,3-dihydroxy-20-methyl-19-nor-9,10-seco-pregna-5,7-dien-21-yl]-4,4,4-trifluoro-3-hydroxy-3-methyl-butyramide]",1 µg/kg,0.35 nM,2.9,15,–,–,–,–,–,–,–,–
"C=C1/C(=C/C=C2\CCC[C@]3(C)[C@@H]([C@H](C)CNC(=O)CC(C)(O)C(F)(F)F)CC[C@@H]23)C[C@@H](O)C[C@@H]1O (mixture of isomers) [I, 1:1 Mixture of --[(5E,7E)--(R)-- and --(S)-4,4,4-trifluoro-3-hydroxy-N--[(1S,3R,20S)-1,3-dihydroxy-20-methyl-9,10-seco-pregna-5,7,10(19)-trien-21-yl]-3-methyl-butyramide]",130 µg/kg,40 nM,3.3,17,–,–,–,–,–,–,–,–
"C[C@H](CNC(=O)C[C@@](C)(O)C(F)(F)F)[C@H]1CCC[C@H]2/C(=C/C=C3C[C@@H](O)C[C@H](O)C3)CCC[C@]12C [F, (E)--(R)--N--[(1R,3R,20S)-1,3-Dihydroxy-17a,20a-dihomo-19-nor-9,10-seco-pregna-5,7-dien-21-yl]-4,4,4-trifluoro-3-hydroxy-3-methyl-butyramide]",5 µg/kg,0.6 nM,8.3,44,–,–,–,–,–,–,–,–
"C[C@H](CNC(=O)CC(O)(C(F)(F)F)C(F)(F)F)[C@H]1CC[C@H]2/C(=C/C=C3C[C@@H](O)C[C@H](O)C3)CCC[C@]12C [A, (E)--(1R,3R,20S)--N-(1,3-Dihydroxy-20-methyl-19-nor-9,10-seco-pregna-5,7-dien-21-yl)-4,4,4-trifluoro-3-hydroxy-3-trifluoromethyl-butyramide]",3 µg/kg,0.47 nM,6.4,34,–,–,–,–,–,–,–,–
"C[C@H](CNC(=O)CC(C)(O)C(F)(F)F)[C@H]1CC[C@H]2/C(=C/C=C3C[C@@H](O)C[C@H](O)C3)CCC[C@]12C (mixture of isomers) [compound B, 1:1 Mixture of (E)--(R)-- and (S)--N--[(1R,3R,20S)-1,3-dihydroxy-20-methyl-19-nor-9,10-seco-pregna-5,7-dien-21-yl]-4,4,4-trifluoro-3-hydroxy-20-methyl-butyramide]",45 µg/kg,1.7 nM,26.5,139,10,5 µg/kg,0.5 µg/kg,20 µg/kg,80 µg/kg,0.25,125,–
"C=C1/C(=C\C=C2/CCC[C@]3(C)[C@@H]([C@H](C)CCCC(C)(C)O)CC[C@@H]23)C[C@@H](O)C[C@@H]1O [Calcitriol, reference compound]",–,–,–,–,–,3 µg/kg,> 22.5 µg/kg,1 µg/kg,500 µg/kg,–,–,did not induce hyperproliferation even at highly toxic does (9 times the dose that induces hypercalcemia)
"C[C@H](CNC(=O)C[C@@](C)(O)C(F)(F)F)[C@H]1CC[C@H]2/C(=C/C=C3C[C@@H](O)C[C@H](O)C3)CCC[C@]12C [compound J, E--(R)--N--[(1R,3R,20S)-1,3-Dihydroxy-20-methyl-19-nor-9,10-seco-pregna-5,7-dien-21-yl]-4,4,4-trifluoro-3-hydroxy-3-methyl-butyramide]",22 µg/kg,2.1 nM,10.5,55,29,5 µg/kg,0.17 µg/kg,8 µg/kg,50 µg/kg,0.16,80,–
"C=C1/C(=C\C=C2/CCC[C@]3(C)[C@@H]([C@H](C)CNC(=O)CC(C)(O)C(F)(F)F)CC[C@@H]23)C[C@@H](O)C[C@@H]1O (mixture of isomers) [D, 1:1 Mixture of [(5Z,7E)--(R)-- and (S)--N--[(1S,3R,20S)-1,3-dihydroxy-20-methyl-9,10-seco-pregna-5,7,10(19)-trien-21-yl]-4,4,4-trifluoro-3-hydroxy-3-methyl-butyramide]",10 µg/kg,1.6 nM,6.3,33,–,–,–,–,–,–,–,–
